From US20200061150A1, “METHOD OF INDUCING SELECTIVE PROSTATE GLANDULAR PHARMACO-ABLATION WITH SPARING OF NERVES AND PRESERVATION OF SEXUAL FUNCTION” (Nymox Corporation, priority 2018, published 2020)
Where a name gives a salt, the structure may show the parent alone. Read-outs that look alike come from different tables or passages of the source. No end group written: not given here.

Assays:
[1] = test system: rat prostate glandular epithelium, nerves, stroma, vessels; assay: Prostate histology (H&E, Bielschowsky silver, TUNEL) in treated rats; format: in vivo, Sprague-Dawley rats
Protocol: (§1) Two month old Sprague-Dawley rats (n=268) weighing 200 to 300 g, housed in groups of 2-5 per cage at room temperature (24-26° C.), with standard unrestricted diet and water, were anesthetized with ether and underwent open laparoscopic injections, using sterile precautions and sterile techniques, without antibiotics, of 0.3 mL of FT 0.1-2.0 mg/mL in phosphate buffered saline (PBS) pH 7.4, administered by #26 gauge sterile needles attached to sterile syringes. The animals received a “whole gland” injection in an amount roughly 20 times the amount previously administered to humans. […] The rats were daily observed and painlessly sacrificed after post-treatment intervals of 24 hours to 12 months under either anesthesia.
Prostate glands were removed, bisected, and immersed in 10% formalin solution, and subsequently embedded in paraffin, sectioned, and stained with (1) hematoxylin-eosin (H&E); (2) Bielschowsky silver method for nerve fibers; and (3) immunohistochemical TUNEL staining. TUNEL (Terminal deoxynucleotidyl transferase (dUTP) nick end labeling) detects DNA fragmentation by labeling the 3′-hydroxyl termini in the double-stand DNA breaks generated during apoptosis. Prostate cell lines (PC3 and LNCAP) were treated with FT 0.001 or 0.25 mg/mL in 6, 24, and 48 well plates and harvested and pelleted at 0, 12, 24, and 48 hours. […] The same treated cell lines under the same conditions were also stained in vitro after treatment using Annexin V immunofluorescence methods and viewed under ultraviolet light, and cell loss in vitro was assessed quantitatively (Multitox-Fluor, Promega). […]
(§2) Apoptosis was evaluated microscopically in H&E stained sections, including rats sacrificed after 24, 48, and 72 hours, 4-8 days, and 1, 3, 6, and 12 months. […] TUNEL staining was assessed in 21 animals (72 hours; 7 days, post-treatment). Prostate volume (calculated by approximation to a sphere using the mean of 8 perpendicular diameters (2 per section at 90 degrees; on four sections) and calculations of 4/3 π(D/2)^3) were assessed in all animals and all controls. […]

[2] = test system: rat prostate; assay: Prostate volume in rats after intraprostatic (whole gland) injection; format: in vivo, Sprague-Dawley rats; conditions: control injection 0.5 mL HCl in water pH 3.0-5.0, 24 hr-10 days
Protocol: as §1
(§3) Sub-groups of rats received repeated injections (2×-8×, on a once weekly basis) (Table 1).
as §2

[3] = in vivo
Source text: as §3

What does the source list for Cl [HCl, reference compound]?
rats with focal ischemic or hemorrhagic infarctions and necrosis ([1]; HCl pH 3.0-5.0 injected, involving <5% of the cross-sectional area): 2/12; Prostate Volume mm^3-Mean (SD) [2]: 859.7 (278.1) mm^3

For “IDQQVLSRIKLEIKRCL [FT, Ile-Asp-Gln-Gln-Val-Leu-Ser-Arg-Ile-Lys-Leu-Glu-Ile-Lys-Arg-Cys-Leu]”, which toxic effects ([3]; dog) is on record?
The toxic effects was “no toxic effects”.

What about the toxic effects ([3]; rabbit) of the same molecule?
The toxic effects was “no toxic effects”.

What about the toxic effects ([3]; rat) of the same molecule?
The toxic effects was “no toxic effects”.

And the “nerves and blood vessels” value ([1]; all time intervals)?
The value was “intact”.

What about the nerve histology ([1]; all time points including 6 months and 1 year) of the same molecule?
Its nerve histology is “normal appearing nerves”.
